Test results published in patent publication US20110269790A1, “NOVEL THIENOPYRIDINES AS PHARMACOLOGICALLY ACTIVE AGENTS” (priority 2009, published 2011).
Converted amounts (≈) assume the structure as drawn. Read-outs that look alike come from different tables or passages of the source.

Columns and labels:
[1] = system: A431 (Skin cancer) cell lines; assay: MTT assay, A431; assay type: cell-based; settings: Homo sapiens, read-out: A431 cell lines IC50
Method: (§1) A431 (Skin cancer), Colo-205 (Colon cancer), A549 (Lung cancer) cell lines were obtained from National Center for Cell science (NCCS), Pune, India. DMEM (Dulbeccos Modified Eagles Medium), MTT [3-(4,5-dimethylthiazol-2-yl)-2,5-diphenyl tetrazolium bromide], Trypsin, EDTA were purchased from Sigma Chemicals Co (St. Louis, Mo.), Fetal bovine serum were purchased from Arrow labs, 96 well flat bottom tissue culture plates were purchased from Tarson.
(§2) A431, Colo-205, A549 cell lines were grown as adherent cells in DMEM media supplemented with 10% fetal bovine serum, 100 μg/ml penicillin, 200 μg/ml streptomycin, 2 mM L-glutamine, and culture was maintained in a humidified atmosphere with 5% CO2. Stock solution of 10 mg/ml was prepared for test molecules in DMSO. From the stock, various dilutions were made with sterile water to get required concentration. A431, Colo-205, A549 cell lines were seeded at a density of 1×10^4 cells (cell number was determined by Trypan blue exclusion dye method) per each well in 100 μl of DMEM supplemented with 10% FBS. 12 hrs after seeding, above media was replaced with fresh DMEM supplemented with 10% FBS. Then, 10 μl sample from above stock solutions were added to each well in triplicates which gives final concentration of 100, 50, 25, 10 μg/well. The above cells were incubated for 48 hrs at 37° C. with 5% CO2. After 48 hrs incubation the above media was replaced with 100 μl of fresh DMEM with out FBS and to this 10 μl of MTT (5 mg dissolved in 1 ml of PBS) was added and incubated for 3 hrs at 37° C. with 5% CO2. After 3 hrs of incubation, the above media was removed with multi channel pipette, then 200 μl of DMSO was added to each well and incubated at 37° C. for 15 min. Finally, the plate was read at 570 nm using spectrophotometer (Spectra Max, Molecular devices).

[2] = target: T1, porcine pancreatic α-amylase (Sus scrofa, UniProt P00690); assay: α-Amylase inhibition assay; assay type: biochemical; settings: 10 mg per ml; for Maltose released: a/b marks the respective control (Control-1 2.147, Control-2 3.429); for inhibition at 10000 µg/mL (stock): 0.05 h, calculated from maltose released vs respective control
T1 construct: α-amylase [EC 3.2.1.1) Type VI B: from porcine pancreas]; purchased Sigma Chemical Co., St Louis, Mo., USA; host or cells: porcine pancreas (natural source)
T1 sequence (P00690 16-511): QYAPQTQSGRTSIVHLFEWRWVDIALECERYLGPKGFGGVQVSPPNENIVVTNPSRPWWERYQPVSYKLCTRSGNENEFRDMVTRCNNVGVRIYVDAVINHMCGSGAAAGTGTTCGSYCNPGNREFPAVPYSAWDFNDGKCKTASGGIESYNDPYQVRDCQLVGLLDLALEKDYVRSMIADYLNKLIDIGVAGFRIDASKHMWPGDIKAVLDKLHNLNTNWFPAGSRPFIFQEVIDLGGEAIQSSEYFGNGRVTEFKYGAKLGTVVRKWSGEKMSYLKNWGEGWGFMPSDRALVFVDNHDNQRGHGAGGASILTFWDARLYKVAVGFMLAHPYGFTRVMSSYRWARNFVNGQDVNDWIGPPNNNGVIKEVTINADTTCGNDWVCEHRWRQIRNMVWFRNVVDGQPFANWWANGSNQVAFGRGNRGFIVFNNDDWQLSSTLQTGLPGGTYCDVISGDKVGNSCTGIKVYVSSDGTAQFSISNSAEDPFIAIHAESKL
From the text: Chemicals: α-Glucosidase [(EC 3.2.1.20) Type I: from bakers yeast], rat intestinal acetone powder (as a source of crude intestinal α-glucosidase), α-amylase [EC 3.2.1.1) Type VI B: from porcine pancreas], p-nitrophenyl α-D-glucopyranoside, 3,5-dinitro salicylic acid, soluble potato starch and 1-deoxyrojirimycine, were purchased from Sigma Chemical Co., St Louis, Mo., USA. Other chemicals of analytical grade were procured from indigenous manufacturers.
a-Amylase Inhibition Assay: The assay method was adopted from Ali et al. (2006) and modified accordingly to suite microplate reading. In brief, 40 μL of test samples (10 mg/mL DMSO) were reconstituted in 160 μL of 20 mM phosphate buffer (pH 6.9) containing 6.7 mM sodium chloride in 2 mL Eppendorf tubes and incubated with 200 μL of porcine pancreatic α-amylase) (4 U/mL prepared in ice cold distilled water) for 5 min. The reaction was started by the addition of 400-μL soluble potato starch solution (0.5% w/v in 20 mM phosphate buffer, pH 6.9). Exactly 3 min after incubation, 400 μL DNS color reagent (1.0 g of 3,5-dinitrosalicylic acid, 30 g of sodium potassium tartrate and 20 mL of 2 N NaOH to a final volume of 100 mL in distilled water) was added. Closed tubes were placed in a water bath (85-90° C.) for 10 min to develop color and cooled thereafter. 50 μL of reaction mixtures was diluted with 175 μL of distilled water in a 96-well microplate. α-Amylase activity was determined by measuring the absorbance of the mixture at 540 nm spectrophotometrically as above. Individual blanks were prepared to correct for the background absorbance due to test samples. In this case DNS solution was added in tubes before addition of substrate. The percentage inhibition of enzyme activity was calculated as above. All the tests were run in duplicate in this assay.

Colo-205 (Colon cancer) = assay: MTT assay, Colo-205; assay type: cell-based; settings: for IC50: Homo sapiens, read-out: Colo-205 IC50
Method: as §1, §2

A549 (Lung cancer) = assay: MTT assay, A549; assay type: cell-based; settings: Homo sapiens, read-out: A549 IC50
Method: as §1, §2

Wistar rats = assay: Carrageenan induced paw edema model; assay type: in vivo, rat; settings: for change in vivo at 100 mg/kg / inhibition in vivo at 100 mg/kg: Rattus norvegicus; for change in vivo at 100 mg/kg: read-out: % Increase in Paw Volume; for inhibition in vivo at 100 mg/kg: read-out: % Inhibition (paw volume)
[3] = 50 mg/kg oral, dose response study, n=6
[4] = 100 mg/kg oral, dose response study, n=6
[5] = 200 mg/kg oral, dose response study, n=6
[6] = test compounds 100 mg/kg oral, Indomethacin 10 mg/kg oral, 3 hrs after Carrageenan

IC50 ([1]; A-431, MTT, 48 hrs) | Maltose released [2] | inhibition at 10000 µg/mL (stock) [2] | IC50 (A549 (Lung cancer); A549, MTT, 48 hrs) | Colo-205 IC50 (Colo-205 (Colon cancer); MTT, 48 hrs) | SMILES | Alpha amylase inhibitory activity (in words) [2] | IC50 (Colo-205 (Colon cancer); COLO 205, MTT, 48 hrs) | change in vivo at 100 mg/kg (Wistar rats; [6]) | inhibition in vivo at 100 mg/kg (Wistar rats; [6]) | further results
40.7 µg/mL (≈ 158 µM) | 1.179 mg/mL | 46.7% | 72.4 µg/mL (≈ 280 µM) | No activity | CC1CCc2c(nc3sc4c(c3c2N)CCC4)C1 (centres unmarked) [BN-15, 7-Methyl-2,3,6,7,8,9-hexahydro-1H-cyclopenta[4,5]thieno[2,3-b]quinolin-10-amine] | strong inhibitory activity | – | 86.5 ± 17.1% | 23.5 ± 8.98% | –
141 µg/mL (≈ 577 µM) | 3.226 mg/mL | 4.85% | 144 µg/mL (≈ 591 µM) | No activity | Nc1c2c(nc3sc4c(c13)CCCC4)CCC2 [BN-5, 2,3,6,7,8,9-Hexahydro-1H-benzo[4,5]thieno[2,3-b]cyclopenta[e]pyridin-10-amine] | – | – | 101 ± 2.94% | 4.32 ± 1.19% | –
45.7 µg/mL (≈ 209 µM) | 2.20 mg/mL | -3.12% | 190 µg/mL (≈ 870 µM) | – | Cc1sc2nc3c(c(N)c2c1C)CCC3 [BN-1, 2,3-dimethyl-6,7-dihydro-5H-cyclopenta[b]thieno[3,2-e]pyridin-4-amine] | – | 245 µg/mL (≈ 1120 µM) | 87.9 ± 2.78% | 24.7 ± 5.49% | –

SMILES | IC50 ([1]; A-431, MTT, 48 hrs) | Maltose released [2] | inhibition at 10000 µg/mL (stock) [2] | IC50 (A549 (Lung cancer); A549, MTT, 48 hrs) | Colo-205 IC50 (Colo-205 (Colon cancer); MTT, 48 hrs) | Alpha amylase inhibitory activity (in words) [2] | IC50 (Colo-205 (Colon cancer); COLO 205, MTT, 48 hrs) | change in vivo at 100 mg/kg (Wistar rats; [6]) | inhibition in vivo at 100 mg/kg (Wistar rats; [6]) | further results
Nc1c2c(nc3sc4c(c13)CCC4)CCCCC2 [BN-16, 1,2,3,6,7,8,9,10-Octahydrocyclohepta[b]cyclopenta[4,5]thieno[3,2-e]pyridine-11-amine] | 63 µg/mL (≈ 244 µM) | 1.492 mg/mL | 31.5% | 39.8 µg/mL (≈ 154 µM) | – | mild inhibition | 123 µg/mL (≈ 476 µM) | 61.1 ± 19.2% | 44.9 ± 5.86% | % Inhibition (Wistar rats; [3]): 20.47 ± 1.61%; Percentage Swelling (50 mg/kg) (Wistar rats; [3]): 73.18 ± 2.41 %; % Inhibition (Wistar rats; [4]): 44.90 ± 5.86%; Percentage Swelling (100 mg/kg) (Wistar rats; [4]): 61.09 ± 5.86 %; % Inhibition (Wistar rats; [5]): 56.0 ± 2.87%; Percentage Swelling (200 mg/kg) (Wistar rats; [5]): 45.60 ± 5.30 %; % Inhibition (Wistar rats; 200 mg/kg oral, dose response study, n=6, listed as B-16): 57.53%
Nc1c2c(nc3sc4c(c13)CCCC4)CCCCC2 [BN-8, 2,3,4,7,8,9,10,11-Octahydro-1H-benzo[4,5]thieno[2,3-b]cyclohepta [e]pyridin-12-amine] | – | 0.913 mg/mL | – | – | – | strong inhibitory activity | – | – | – | IC50 ([1]; A-431, 48 h): 51.1 µg/mL (≈ 188 µM); IC50 (Colo-205 (Colon cancer); COLO 205, 48 h): 70.8 µg/mL (≈ 260 µM); IC50 (A549 (Lung cancer); A549, 48 h): 186 µg/mL (≈ 683 µM); change in vivo at 100 mg/kg (Wistar rats; po, 3 h): 109 ± 4.87%; inhibition in vivo at 100 mg/kg (Wistar rats; po, 3 h): 1.2 ± 0.87%
